Measurements from paper PMC6199744, “Development of Chemical Proteomics for the Folateome and Analysis of the Kinetoplastid Folateome” (ACS Infectious Diseases, 2018).
“And” between values parts separate entries of the source, which are not always exact repeats. Identical values can stand only once. Like-named read-outs stand apart in the source and are kept apart here.

System: T. brucei lysate proteins
Type: binding, Trypanosoma brucei

## CCCCCCOc1ccc(Cc2cnc(N)nc2N)cc1 [compound 1]
  fold change - vehicle control: 0.84 and 0.54 and 0.72 and 0.9 and 0.79
Protein RHS6A (CZT00028360.1)
  fold change - vehicle control: 0.94
Protein TB09.160.1250 HY[…], CONSERVED
  fold change - vehicle control: 0.85
Protein TB09.160.3670 RIBOSOMAL PROTEIN S6, PUTATIVE
  fold change - vehicle control: 0.92
Protein TB09.211.2630 60S RIBOSOMAL PROTEIN L23, PUTATIVE
  fold change - vehicle control: 1
Protein TB09.211.4513 KIN[…] PROTEIN KMP-11
  fold change - vehicle control: 0.73
Protein TB11.V4.0005 RIBONUCLEOSIDE-DIPHOSPHATE REDUCTASE SMALL CHAIN
  fold change - vehicle control: 0.92
Protein TB11.01.0870 R[…] A, 51KDA SUBUNIT, PUTATIVE
  fold change - vehicle control: 0.98
Protein TB11.01.2560 40S RIBOSOMAL PROTEIN SA, PUTATIVE
  fold change - vehicle control: 1.02
Protein TB11.01.4880 HY[…], CONSERVED
  fold change - vehicle control: 0.77
Protein TB11.01.7090 HY[…], CONSERVED
  fold change - vehicle control: 0.93
Protein TB11.02.2510 GUANINE NUCLEOTIDE-BINDING BETA SUBUNIT-LIKE PROTEIN
  fold change - vehicle control: 0.93
Protein TB11.02.4170 40S RIBOSOMAL PROTEIN S5, PUTATIVE
  fold change - vehicle control: 1.3
Protein TB11.03.0250 C[…]
  fold change - vehicle control: 1.42
Protein TB11.46.0009 HY[…], CONSERVED
  fold change - vehicle control: 0.95
Protein TB427TMP.01.1475 40S RIBOSOMAL PROTEIN S27, PUTATIVE
  fold change - vehicle control: 0.92
Protein TB427TMP.01.4280 HY[…], CONSERVED
  fold change - vehicle control: 1.08
Protein TB427TMP.01.4650 HY[…], CONSERVED
  fold change - vehicle control: 0.58
Protein TB427TMP.01.4810 HY[…], CONSERVED
  fold change - vehicle control: 0.83
Protein TB427TMP.01.5680 HY[…], CONSERVED
  fold change - vehicle control: 0.33
Protein TB427TMP.01.8390 HY[…], CONSERVED
  fold change - vehicle control: 0.87
Protein TB427TMP.02.0230 HY[…], CONSERVED
  fold change - vehicle control: 1.01
Protein TB427TMP.02.0460 NUCLEOPORIN
  fold change - vehicle control: 0.92
Protein TB427TMP.02.1106 NUCLEOBASE/NUCLEOSIDE TRANSPORTER 8 1
  fold change - vehicle control: 1.06
Protein TB427TMP.160.2050 ENDO-BETA-N-ACETYLGLUCOSAMINIDASE, PUTATIVE
  fold change - vehicle control: 0.79
Protein TB427TMP.160.4310 GLUTAMATE DEHYDROGENASE
  fold change - vehicle control: 1.16
Protein TB427TMP.160.4450 40S RIBOSOMAL PROTEIN S3, PUTATIVE
  fold change - vehicle control: 1
Protein TB427TMP.160.4630 HY[…], CONSERVED
  fold change - vehicle control: 0.8
Protein TB427TMP.160.5200 HY[…], CONSERVED
  fold change - vehicle control: 0.67
Protein TB427TMP.160.5670 HY[…], CONSERVED
  fold change - vehicle control: 0.21
Protein TB427TMP.211.0930 POLYADENYLATE-BINDING PROTEIN 1
  fold change - vehicle control: 1.23
Protein TB427TMP.211.1750 MIT[…] PROTEIN, PUTATIVE
  fold change - vehicle control: 0.86
Protein TB427TMP.211.3510 ATP-DEPENDENT DEAD/H RNA HELICASE, PUTATIVE
  fold change - vehicle control: 0.97
Protein TB427TMP.211.4540 RNA-BINDING PROTEIN, PUTATIVE
  fold change - vehicle control: 0.71
Protein TB427TMP.244.2840 HY[…], CONSERVED
  fold change - vehicle control: 0.64
Protein TB427.01.1240 CYTIDINE TR[…], PUTATIVE
  fold change - vehicle control: 0.67
Protein TB427.01.2570 COATOMER BETA SUBUNIT
  fold change - vehicle control: 0.88
Protein TB427.01.3910 HY[…], CONSERVED
  fold change - vehicle control: 0.83
Protein TB427.02.6240
  fold change - vehicle control: 0.95
Protein TB427.04.3350 HY[…], CONSERVED
  fold change - vehicle control: 1.02
Protein TB427.04.3890 ATP-DEPENDENT RNA HELICASE, PUTATIVE
  fold change - vehicle control: 0.9
Protein TB427.04.4870 AMINO ACID TRANSPORTER, PUTATIVE
  fold change - vehicle control: 0.86
Protein TB427.04.750 50S RIBOSOMAL PROTEIN L7AE, PUTATIVE
  fold change - vehicle control: 0.67
Protein TB427.04.960 HY[…], CONSERVED
  fold change - vehicle control: 0.68
Protein TB427.05.1780 HY[…], CONSERVED
  fold change - vehicle control: 0.66
Protein TB427.05.3030 INTR[…] PROTEIN IFT122, PUTATIVE
  fold change - vehicle control: 0.78
Protein TB427.05.4560 GUANINE DEAMINASE, PUTATIVE
  fold change - vehicle control: 1.07
Protein TB427.06.2150 CELL DIVISION CYCLE PROTEIN 16, PUTATIVE
  fold change - vehicle control: 0.92
Protein TB427.06.3110 PROTEIN KINASE, PUTATIVE (CRK11)
  fold change - vehicle control: 1.03
Protein TB427.06.5110 DAMAGE-SPECIFIC DNA BINDING PROTEIN, PUTATIVE
  fold change - vehicle control: 0.86
Protein TB427.07.2670 HY[…], CONSERVED
  fold change - vehicle control: 0.89
Protein TB427.07.3040 HY[…], CONSERVED
  fold change - vehicle control: 0.9
Protein TB427.07.3530 HY[…], CONSERVED
  fold change - vehicle control: 0.96
Protein TB427.07.4970 GLUTAMINE SYNTHETASE, PUTATIVE
  fold change - vehicle control: 0.89
Protein TB427.07.5560 GLUCOSAMINE-FRUCTOSE-6-PHOSPHATE AMINOTRANSFERASE, PUTATIVE
  fold change - vehicle control: 0.77
Protein TB427.07.5890 HY[…], CONSERVED
  fold change - vehicle control: 0.86
Protein TB427.07.7070 HY[…], CONSERVED
  fold change - vehicle control: 0.72
Protein TB427.07.7460 HY[…], CONSERVED
  fold change - vehicle control: 0.81
Protein TB427.08.1500 HY[…], CONSERVED
  fold change - vehicle control: 0.87
Protein TB427.08.1840 HY[…], CONSERVED
  fold change - vehicle control: 1.24
Protein TB427.08.1960 HY[…], CONSERVED
  fold change - vehicle control: 0.78
Protein TB427.08.2080 HY[…], CONSERVED
  fold change - vehicle control: 0.67
Protein TB427.08.3750 NUCLEOLAR PROTEIN, PUTATIVE
  fold change - vehicle control: 0.89
Protein TB427.08.6390 LYSOPHOSPHOLIPASE, PUTATIVE
  fold change - vehicle control: 0.97
Protein TB427.10.10610 PROTEIN TYROSINE PHOSPHATASE, PUTATIVE
  fold change - vehicle control: 0.62
Protein TB427.10.1100 60S RIBOSOMAL PROTEIN L9, PUTATIVE
  fold change - vehicle control: 1.06
Protein TB427.10.12740
  fold change - vehicle control: 0.9
Protein TB427.10.14660 HY[…], CONSERVED
  fold change - vehicle control: 0.83
Protein TB427.10.15720 […]-ATP-ASE SUBUNIT 9
  fold change - vehicle control: 0.9
Protein TB427.10.2440 METACASPASE MCA4
  fold change - vehicle control: 0.84
Protein TB427.10.2900 IMPORTIN BETA-1 SUBUNIT, PUTATIVE
  fold change - vehicle control: 0.68
Protein TB427.10.3470 HY[…], CONSERVED
  fold change - vehicle control: 0.78
Protein TB427.10.4110 60S RIBOSOMAL PROTEIN L30
  fold change - vehicle control: 0.82
Protein TB427.10.4610 […]-MANNOSE SYNTHASE, PUTATIVE
  fold change - vehicle control: 0.82
Protein TB427.10.5250 HY[…], CONSERVED
  fold change - vehicle control: 0.86
Protein TB427.10.7410 SUCCINYL-COA LIGASE GDP-FORMING] BETA-CHAIN, PUTATIVE
  fold change - vehicle control: 0.9
Protein TB927.10.12960 RAS-RELATED PROTEIN RAB-5
  fold change - vehicle control: 0.82
Protein TB927.10.14800 PROTEIN KINASE, PUTATIVE
  fold change - vehicle control: 1.18
Protein TB927.10.2980 […]-ATPASE SUBUNIT 11
  fold change - vehicle control: 0.83
Protein TB927.10.3660 ASPARTATE AMINOTRANSFERASE
  fold change - vehicle control: 1.14
Protein TB927.10.4570 […] 2
  fold change - vehicle control: 0.72
Protein TB927.10.5140 PROTEIN KINASE, PUTATIVE
  fold change - vehicle control: 0.83
Protein TB927.10.560 40S RIBOSOMAL PROTEINS S11, PUTATIVE
  fold change - vehicle control: 0.94
Protein TB927.10.6510 CHAPERONIN HSP60, MIT[…]
  fold change - vehicle control: 0.87
Protein TB927.3.1840 3-OXO-5-ALPHA-STEROID 4-DEHYDROGENASE, PUTATIVE
  fold change - vehicle control: 1
Protein TB927.3.3780 TRYPAREDOXIN
  fold change - vehicle control: 0.82
Protein TB927.3.740 HY[…], CONSERVED
  fold change - vehicle control: 0.83
Protein TB927.4.2740 HY[…], CONSERVED
  fold change - vehicle control: 0.74
Protein TB927.4.3590 T[…] 1-BETA, PUTATIVE
  fold change - vehicle control: 0.85
Protein TB927.6.4320 HY[…], CONSERVED
  fold change - vehicle control: 0.84
Protein TB927.7.2550 […] SUBUNIT 5
  fold change - vehicle control: 0.7
Protein TB927.7.2980 HY[…], CONSERVED
  fold change - vehicle control: 0.84
Protein TB927.7.7430 ATP SYNTHASE ALPHA CHAIN, MIT[…]
  fold change - vehicle control: 0.73
Protein TB927.8.1990 PEROXIDOXIN
  fold change - vehicle control: 0.74
Protein TB927.8.4720 AMINO ACID TRANSPORTER, PUTATIVE
  fold change - vehicle control: 1.08
Protein TB927.8.890 SMALL GTP-BINDING PROTEIN RAB1, PUTATIVE
  fold change - vehicle control: 0.93
